From publication PMC8984819, “Acetylene containing 2-(2-hydrazinyl)thiazole derivatives: design, synthesis, and in vitro and in silico evaluation of antimycobacterial activity against Mycobacterium tuberculosis” (RSC Advances, 2022)
Values after ≈ are worked out from the molar mass of the structure shown. Where two headings read alike, the source gives them in different places.

Key:
[1] = system: H37Rv strain of Mycobacterium tuberculosis; assay: microbe, parasite or virus in culture; assay type: cell-based; conditions: for inhibition at 50 µg/mL / inhibition at 100 µg/mL / inhibition at 2 µg/mL: H37RV; for inhibition at 50 µg/mL / inhibition at 100 µg/mL / % Inhibition ± SD: LRP assay; for inhibition at 50 µg/mL / inhibition at 100 µg/mL: read-out: % Inhibition ± SD
[2] = in vitro; assay type: cell-based; conditions: human
Procedure: HEK293 cells were grown in DMEM media containing 10% FBS and L-glutamine–penicillin–streptomycin solution at 37 °C in 5% CO2 condition. To perform MTT assay, 96 well tissue culture plate was seeded with […] number of cells. After 16 hours of seeding, cells were successfully attached to the culture plate and were treated with the active chemical compounds dissolved in DMSO at different concentrations as follows: 25 μg ml^−1, 50 μg ml^−1, 75 μg ml^−1 and 100 μg ml^−1. The cells were also treated with the DMSO to exclude the solvent-induced toxicity and used as an internal control. After 48 hours post active chemical compounds treatment, the MTT assay was performed as described previously.[45] MG-132, a potent proteasomal inhibitor and an inducer of apoptosis[46,47] was used as a positive control in the assay. Wells with media lacking any cells were as used as a negative control in the assay.
Tetrazolium-based […] cytotoxicity (MTT) assay is an important method to evaluate the viability of cells and it was performed for all the active chemical compounds using HEK293. To illustrate the percentage cell viability, the HEK293 cells were incubated with different concentrations of all active chemical compounds for 48 h. The compounds showing the viability of less than 50% of the cells were considered cytotoxic compounds. We observed that maximum compounds (such as 7, 9, 10, 13 and 25) show more than 75% of the cell viability at the highest concentration i.e. 100 μg ml^−1 for 48 hours of the treatment. Similarly, other compounds (such as 5, 6, 22, 26 and 31) show 70% cell viability upon 48 hours of the treatment. […] MG-132, a potent proteasomal inhibitor and an inducer of apoptosis was used as a positive control in the assay.

[3] = Mycobacterium tuberculosis, 50 µg/ml, M. Tb H37Rv
[4] = Mycobacterium tuberculosis, 100 µg/ml, M. Tb H37Rv

SMILES | inhibition at 50 µg/mL [1, 3] | inhibition at 100 µg/mL [1, 4] | melting point | also measured
C#CCOc1ccc(/C=N/Nc2nc(-c3ccc(Br)cc3)cs2)cc1OCC [Compound 20] | 7.35 ± 0.22% | 12.1 ± 0.36% |  | 
C#CCOc1ccc(/C=N/Nc2nc(-c3ccc(C#N)cc3)cs2)cc1OCC [Compound 22] | 50.9 ± 1.52% | 57.2 ± 1.71% |  | viability at 48 h, 100 μg ml^−1 [2]: 70%
C#CCOc1ccccc1/C=N/NC(N)=S [Compound 4] | 46.8 ± 1.4% |  | 174 to 176 °C | antitubercular activity against M. Tb (active = 50% RLU reduction and above) ([1]; concentration not given): inactive
C#CCOc1ccc(Br)cc1/C=N/Nc1nc(-c2ccc(F)cc2)cs1 [Compound 26] | 50.7 ± 1.52% | 57.7 ± 1.73% | 207 to 209 °C | viability at 48 h, 100 μg ml^−1 [2]: 70%
C#CCOc1ccccc1/C=N/Nc1nc(-c2ccc(C#N)cc2)cs1 [Compound 13] | 54.3 ± 1.62% |  | 150 to 152 °C | viability at 48 h, 100 μg ml^−1 [2]: > 75%
C#CCOc1ccccc1/C=N/Nc1nc(-c2ccc(Cl)c(Cl)c2)cs1 [Compound 10] | 52 ± 1.56% |  |  | viability at 48 h, 100 μg ml^−1 [2]: > 75%
C#CCOc1ccc(Br)cc1C=O [Compound 3] | 48.7 ± 1.46% | 50.9 ± 1.52% | 92 to 93 °C | 
C#CCOc1ccccc1C=O [Compound 1] | 39.3 ± 1.17% |  |  | 
C#CCOc1ccc(Br)cc1/C=N/Nc1nc(-c2ccccc2)cs1 [Compound 25] | 61% | 66.2 ± 1.98% | 195 to 197 °C | viability at 48 h, 100 μg ml^−1 [2]: > 75%; % Inhibition ± SD ([1]; 50 µg/ml, M. Tb H37Rv): 61.86 ± 1.85%; MIC ([1]; Mycobacterium tuberculosis, concentration giving 50% inhibition of M. Tb H37Rv): 50 µg/mL (≈ 121 µM)
C#CCOc1ccc(Br)cc1/C=N/Nc1nc(-c2ccc(OC)cc2)cs1 [Compound 32] | 43.7 ± 1.31% | 48.7 ± 1.46% | 184 to 187 °C | 
C#CCOc1ccccc1/C=N/Nc1nc(-c2ccc([N+](=O)[O-])cc2)cs1 [Compound 12] | 29.1 ± 0.87% |  | 185 to 187 °C | 
C#CCOc1ccc(/C=N/Nc2nc(-c3ccc(OC)cc3)cs2)cc1OCC [Compound 24] | 5.64 ± 0.16% | 33 ± 0.98% | 183 to 185 °C | 
C#CCOc1ccccc1/C=N/Nc1nc(-c2ccc(C)cc2)cs1 [Compound 14] | 38.2 ± 1.14% |  |  | 
C#CCOc1ccc(Br)cc1/C=N/Nc1nc(-c2ccc(Br)cc2)cs1 [Compound 29] | 27.1 ± 0.81% | 37.2 ± 1.11% | 208 to 210 °C | 
C#CCOc1ccc(/C=N/Nc2nc(-c3ccc([N+](=O)[O-])cc3)cs2)cc1OCC [Compound 21] | 48.7 ± 1.46% | 50.9 ± 1.52% | 191 to 193 °C | 
CO[C@H]1/C=C/O[C@@]2(C)Oc3c(C)c(O)c4c(O)c(c(/C=N/N5CCN(C)CC5)c(O)c4c3C2=O)NC(=O)/C(C)=C\C=C\[C@H](C)[C@H](O)[C@@H](C)[C@@H](O)[C@@H](C)[C@H](OC(C)=O)[C@@H]1C [RIF, rifampicin, reference compound] |  |  |  | inhibition at 2 µg/mL ([1]; Mycobacterium tuberculosis): > 99%
C#CCOc1ccc(Br)cc1/C=N/Nc1nc(-c2ccc(Cl)c(Cl)c2)cs1 [Compound 28] | 43.8 ± 1.31% | 50.2 ± 1.5% | 213 to 215 °C | % Inhibition ± SD ([1]; 100 µg/ml, M. Tb H37Rv): 50%

SMILES | inhibition at 50 µg/mL [1, 3] | inhibition at 100 µg/mL [1, 4] | melting point | also measured
C#CCOc1ccc(/C=N/Nc2nc(-c3ccc(Cl)c(Cl)c3)cs2)cc1OCC [Compound 19] | 2.38 ± 0.07% | 7.21 ± 0.21% | 153 to 155 °C | 
C#CCOc1ccccc1/C=N/Nc1nc(-c2ccc(Br)cc2)cs1 [Compound 11] | 49.1 ± 1.47% |  | 144 to 146 °C | 
C#CCOc1ccccc1/C=N/Nc1nc(-c2ccc(OC)cc2)cs1 [Compound 15] | 10.3 ± 0.3% |  | 181 to 183 °C | 
C#CCOc1ccccc1/C=N/Nc1nc(-c2ccccc2)cs1 [Compound 7] | 51.7 ± 1.54% |  | 183 to 185 °C | viability at 48 h, 100 μg ml^−1 [2]: > 75%
C#CCOc1ccc(/C=N/Nc2nc(-c3ccccc3)cs2)cc1OCC [Compound 16] | 40.5 ± 1.21% | 48.7 ± 1.46% |  | 
C#CCOc1ccc(/C=N/Nc2nc(-c3ccc(C)cc3)cs2)cc1OCC [Compound 23] | 8.72 ± 0.26% | 10.5 ± 0.31% | 166 to 168 °C | 
C#CCOc1ccc(Br)cc1/C=N/Nc1nc(-c2ccc(Cl)cc2)cs1 [Compound 27] | 38.1 ± 1.14% | 52.7 ± 1.58% | 209 to 211 °C | % Inhibition ± SD ([1]; 100 µg/ml, M. Tb H37Rv): 50%
NNC(=O)c1ccncc1 [INH, isoniazid, reference compound] |  |  |  | inhibition at 2 µg/mL ([1]; Mycobacterium tuberculosis, at 2 µg/ml, reference drugs, M. Tb H37Rv, read-out: % Inhibition): > 99%
C#CCOc1ccccc1/C=N/Nc1nc(-c2ccc(F)cc2)cs1 [Compound 8] | 38 ± 1.14% |  | 180 to 182 °C | 
C#CCOc1ccc(C=O)cc1OCC [Compound 2] | 7.73 ± 0.23% | 8.08 ± 0.24% | 74 to 75 °C | 
C#CCOc1ccc(Br)cc1/C=N/Nc1nc(-c2ccc(C)cc2)cs1 [Compound 31] | 54.9 ± 1.64% | 56.3 ± 1.68% | 191 to 193 °C | viability at 48 h, 100 μg ml^−1 [2]: 70%; % Inhibition ± SD ([1]; 50 µg/ml, M. Tb H37Rv): 54%
C#CCOc1ccccc1/C=N/Nc1nc(-c2ccc(Cl)cc2)cs1 [Compound 9] | 50.8 ± 1.52% |  | 160 to 164 °C | viability at 48 h, 100 μg ml^−1 [2]: > 75%
C#CCOc1ccc(/C=N/Nc2nc(-c3ccc(Cl)cc3)cs2)cc1OCC [Compound 18] | 6.36 ± 0.19% | 17.8 ± 0.53% |  | 
C#CCOc1ccc(Br)cc1/C=N/NC(N)=S [Compound 6] | 51.2 ± 1.53% | 56.9 ± 1.7% | 204 to 206 °C | viability at 48 h, 100 μg ml^−1 [2]: 70%
C#CCOc1ccc(/C=N/Nc2nc(-c3ccc(F)cc3)cs2)cc1OCC [Compound 17] | 2.06 ± 0.06% | 11.4 ± 0.34% | 152 to 154 °C | 
C#CCOc1ccc(Br)cc1/C=N/Nc1nc(-c2ccc(C#N)cc2)cs1 [Compound 30] | 43.7 ± 1.31% | 48.7 ± 1.46% | 199 to 201 °C | 
